Assay [1] deals with Cy5-labelled Mcl1 (amino acids 171-321) C286S protein (UniProtKB Q07820) (Homo sapiens (Human), UniProt Q07820, C286S). In words: Inhibition of Mcl-1 by the fluorescence quenching assay (Example A, Method B). The format is binding. In outline:
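Eleven-point compound series incubated 2 h at room temperature with 1 nM Cy5-tagged protein and quencher-labelled PUMA peptide at 10, 20 or 400 nM in HEPES/NaCl/Tween 20, pH 7.4, 5% DMSO. IC50 for 50% fluorescence increase by 4-parameter fit, then Ki derived (complete cKi or estimated eKi).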

The test system of assay [2] is H929 multiple myeloma tumor line. Briefly: In vitro cytotoxicity, MTT assay (Example B, Method A). The format is cell-based. The note with it: Homo sapiens, NCI-H929, 48 h, H929 cells, 48 hours exposure, read-out: C50. As to the method:
The cytotoxicity studies were carried out on the H929 multiple myeloma tumor line.
The cells are distributed onto microplates and exposed to the test compounds for 48 hours. The cell viability is then quantified by a colorimetric assay, the Microculture Tetrazolium Assay (Carmichael et al, Cancer Res. 1987, 47, 939-942).
The results are expressed in C50 which means concentration corresponding to […] of effect/inhibition.

Chain of Cy5-labelled Mcl1 (amino acids 171-321) C286S protein (Q07820 171-321 C286S): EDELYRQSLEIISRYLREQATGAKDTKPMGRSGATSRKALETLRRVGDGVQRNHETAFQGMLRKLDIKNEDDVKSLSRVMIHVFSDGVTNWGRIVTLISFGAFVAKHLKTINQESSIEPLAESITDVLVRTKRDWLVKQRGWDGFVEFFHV

Usually Ki stands for a dissociation constant, usually derived from enzyme kinetics or from competition with a known ligand. Take `C[C@@H](COc1ccnc2c1[C@H](C(F)(F)F)CCC2)C[C@H]1Cc2ccccc2[C@]12CC[C@@](Nc1cccc(Cl)c1)(C(=O)O)CC2` [Example 699, (1r,2′S,4S)-4-(3-chloroanilino)-2′-[(2R)-2-methyl-3-{[(5R)-5-(trifluoromethyl)-5,6,7,8-tetrahydroquinolin-4-yl]oxy}propyl]-2′,3′-dihydrospiro[cyclohexane-1,1′-indene]-4-carboxylic acid]: the inhibitory constant (Ki) in assay [1] was determined as 1.15 nM. The IC50 in assay [2] came to 115 nM.

`C[C@@H](COc1ccnc2c1[C@H](C)C(F)(F)CC2)C[C@H]1Cc2ccccc2[C@]12CC[C@@](Nc1cccc(Cl)c1)(C(=O)O)CC2` [Example 700, (1r,2′S,4S)-4-(3-chloroanilino)-2′-[(2R)-3-{[(5S)-6,6-difluoro-5-methyl-5,6,7,8-tetrahydroquinolin-4-yl]oxy}-2-methylpropyl]-2′,3′-dihydrospiro[cyclohexane-1,1′-indene]-4-carboxylic acid]: in assay [1], the Ki is 5.09 nM. Moreover, in assay [2], the IC50 is 330 nM.

`C[C@@H](COc1ccnc2c1[C@@H](C)C(F)(F)CC2)C[C@H]1Cc2ccccc2[C@]12CC[C@@](Nc1cccc(Cl)c1)(C(=O)O)CC2` [Example 701, (1r,2′S,4S)-4-(3-chloroanilino)-2′-[(2R)-3-{[(5R)-6,6-difluoro-5-methyl-5,6,7,8-tetrahydroquinolin-4-yl]oxy}-2-methylpropyl]-2′,3′-dihydrospiro[cyclohexane-1,1′-indene]-4-carboxylic acid]: in assay [1], the Ki is 28.5 nM. For the same compound, the IC50 in assay [2] came to 1560 nM.

On to `C[C@@H](COc1ccnc2c1[C@H](C)CCC2)C[C@H]1Cc2ccccc2[C@]12CC[C@@](Nc1ccc(F)c(Cl)c1)(C(=O)O)CC2` [Example 702, (1r,2′S,4S)-4-(3-chloro-4-fluoroanilino)-2′-[(2R)-2-methyl-3-{[(5R)-5-methyl-5,6,7,8-tetrahydroquinolin-4-yl]oxy}propyl]-2′,3′-dihydrospiro[cyclohexane-1,1′-indene]-4-carboxylic acid], for which the Ki in assay [1] was 0.194 nM. Further, in assay [2], the IC50 was determined as 41.5 nM.

`C[C@@H](COc1ccnc2c1[C@H](C)CCC2)C[C@@H]1Cc2ccccc2[C@]12CC[C@@](Nc1ccc(F)c(Cl)c1)(C(=O)O)CC2` [Example 703, (1r,2′R,4R)-4-(3-chloro-4-fluoroanilino)-2′-[(2R)-2-methyl-3-{[(5R)-5-methyl-5,6,7,8-tetrahydroquinolin-4-yl]oxy}propyl]-2′,3′-dihydrospiro[cyclohexane-1,1′-indene]-4-carboxylic acid]: in assay [1], the Ki was 1.27 nM. Further, in assay [2], the IC50 turned out to be 169 nM.

As to `C[C@@H](COc1ccnc2c1[C@H](C)CCC2)C[C@H]1Cc2ccccc2[C@]12CC[C@@](Nc1cc(F)cc(Cl)c1)(C(=O)O)CC2` [Example 704, (1r,2′S,4S)-4-(3-chloro-5-fluoroanilino)-2′-[(2R)-2-methyl-3-{[(5R)-5-methyl-5,6,7,8-tetrahydroquinolin-4-yl]oxy}propyl]-2′,3′-dihydrospiro[cyclohexane-1,1′-indene]-4-carboxylic acid], the Ki in assay [1] came to 1.49 nM. Besides, in assay [2], the IC50 stood at 240 nM.

Turning to `C[C@@H](COc1ccnc2c1[C@H](C)CCC2)C[C@H]1Cc2ccccc2[C@]12CC[C@@](Nc1cc(Cl)ccc1F)(C(=O)O)CC2` [Example 705, (1r,2′S,4S)-4-(5-chloro-2-fluoroanilino)-2′-[(2R)-2-methyl-3-{[(5R)-5-methyl-5,6,7,8-tetrahydroquinolin-4-yl]oxy}propyl]-2′,3′-dihydrospiro[cyclohexane-1,1′-indene]-4-carboxylic acid], in assay [1], the Ki is 27.7 nM. In assay [2], the IC50 was found to be 2750 nM.

As for `C[C@@H](COc1ccnc2c1[C@H](C)CCC2)C[C@H]1Cc2ccccc2[C@]12CC[C@@](Nc1cccc(Cl)c1F)(C(=O)O)CC2` [Example 706, (1r,2′S,4S)-4-(3-chloro-2-fluoroanilino)-2′-[(2R)-2-methyl-3-{[(5R)-5-methyl-5,6,7,8-tetrahydroquinolin-4-yl]oxy}propyl]-2′,3′-dihydrospiro[cyclohexane-1,1′-indene]-4-carboxylic acid], the Ki in assay [1] worked out at 0.901 nM. Further, the IC50 in assay [2] was found to be 93.9 nM.

For `Cc1ccc(N[C@]2(C(=O)O)CC[C@]3(CC2)c2ccccc2C[C@@H]3C[C@@H](C)COc2ccnc3c2[C@H](C)CCC3)cc1Cl` [Example 709, (1r,2′S,4S)-4-(3-chloro-4-methylanilino)-2′-[(2R)-2-methyl-3-{[(5R)-5-methyl-5,6,7,8-tetrahydroquinolin-4-yl]oxy}propyl]-2′,3′-dihydrospiro[cyclohexane-1,1′-indene]-4-carboxylic acid], the Ki in assay [1] is 6.4 nM. Moreover, the IC50 in assay [2] came out at 1010 nM.

As for `Cc1cc(Cl)cc(N[C@]2(C(=O)O)CC[C@]3(CC2)c2ccccc2C[C@@H]3C[C@@H](C)COc2ccnc3c2[C@H](C)CCC3)c1` [Example 710, (1r,2′S,4S)-4-(3-chloro-5-methylanilino)-2′-[(2R)-2-methyl-3-{[(5R)-5-methyl-5,6,7,8-tetrahydroquinolin-4-yl]oxy}propyl]-2′,3′-dihydrospiro[cyclohexane-1,1′-indene]-4-carboxylic acid], the Ki in assay [1] was 44.1 nM. Besides, the IC50 in assay [2] stood at 3280 nM.

Take `C[C@@H](COc1ccnc2c1[C@H](C)CCC2)C[C@H]1Cc2ccccc2[C@]12CC[C@@](Nc1cccc(Br)c1)(C(=O)O)CC2` [Example 711, (1r,2′S,4S)-4-(3-bromoanilino)-2′-[(2R)-2-methyl-3-{[(5R)-5-methyl-5,6,7,8-tetrahydroquinolin-4-yl]oxy}propyl]-2′,3′-dihydrospiro[cyclohexane-1,1′-indene]-4-carboxylic acid]: in assay [1], the Ki turned out to be 0.446 nM. Further, the IC50 in assay [2] was 59.8 nM.

On to `C[C@@H](COc1ccnc2c1[C@H](C)CCC2)C[C@H]1Cc2ccccc2[C@]12CC[C@@](Nc1ccc(F)c(Br)c1)(C(=O)O)CC2` [Example 712, (1r,2′S,4S)-4-(3-bromo-4-fluoroanilino)-2′-[(2R)-2-methyl-3-{[(5R)-5-methyl-5,6,7,8-tetrahydroquinolin-4-yl]oxy}propyl]-2′,3′-dihydrospiro[cyclohexane-1,1′-indene]-4-carboxylic acid], for which the Ki in assay [1] amounted to 0.439 nM. The IC50 in assay [2] is 74 nM.

As to `C[C@@H](COc1ccnc2c1[C@H](C)CCC2)C[C@H]1Cc2ccccc2[C@]12CC[C@](C(=O)O)(N1CCc3c(Cl)cccc31)CC2` [Example 713, (1r,2′S,4S)-4-(4-chloro-2,3-dihydro-1H-indol-1-yl)-2′-[(2R)-2-methyl-3-{[(5R)-5-methyl-5,6,7,8-tetrahydroquinolin-4-yl]oxy}propyl]-2′,3′-dihydrospiro[cyclohexane-1,1′-indene]-4-carboxylic acid], the Ki in assay [1] was found to be 3.23 nM. Besides, in assay [2], the IC50 amounted to 152 nM.

As to `C[C@@H](COc1ccnc2c1[C@H](C)CCC2)C[C@H]1Cc2ccccc2[C@]12CC[C@@](Nc1ccnc(Cl)c1)(C(=O)O)CC2` [Example 714, (1r,2′S,4S)-4-[(2-chloropyridin-4-yl)amino]-2′-[(2R)-2-methyl-3-{[(5R)-5-methyl-5,6,7,8-tetrahydroquinolin-4-yl]oxy}propyl]-2′,3′-dihydrospiro[cyclohexane-1,1′-indene]-4-carboxylic acid], in assay [1], the Ki worked out at 4.75 nM. Moreover, the IC50 in assay [2] was 1260 nM.

Take `C[C@@H](COc1ccnc2c1[C@H](C)CCC2)C[C@H]1Cc2ccccc2[C@]12CC[C@@](Nc1cccc(C#N)c1)(C(=O)O)CC2` [Example 716, (1r,2′S,4S)-4-(3-cyanoanilino)-2′-[(2R)-2-methyl-3-{[(5R)-5-methyl-5,6,7,8-tetrahydroquinolin-4-yl]oxy}propyl]-2′,3′-dihydrospiro[cyclohexane-1,1′-indene]-4-carboxylic acid]: the Ki in assay [1] turned out to be 4.71 nM. Moreover, the IC50 in assay [2] was determined as 311 nM.

As to `C[C@@H](COc1ccnc2c1[C@H](C)CCC2)C[C@H]1Cc2ccccc2[C@]12CC[C@@](Sc1cccc(Cl)c1)(C(=O)O)CC2` [Example 718, (1r,2′S,4S)-4-[(3-chlorophenyl)sulfanyl]-2′-[(2R)-2-methyl-3-{[(5R)-5-methyl-5,6,7,8-tetrahydroquinolin-4-yl]oxy}propyl]-2′,3′-dihydrospiro[cyclohexane-1,1′-indene]-4-carboxylic acid], in assay [1] (@ 10 μM, read-out: Mcl-1 inhibition, % at a single concentration), the inhibition at 10 µM stood at 14.8%. Besides, the IC50 in assay [2] turned out to be 15900 nM.

`C[C@@H](COc1ccnc2c1[C@@H](C)CCC2)C[C@H]1Cc2ccccc2[C@]12CC[C@@](Cc1cccc(Cl)c1)(C(=O)O)CC2` [Example 719, (1s,2′S,4R)-4-[(3-chlorophenyl)methyl]-2′-[(2R)-2-methyl-3-{[(5S)-5-methyl-5,6,7,8-tetrahydroquinolin-4-yl]oxy}propyl]-2′,3′-dihydrospiro[cyclohexane-1,1′-indene]-4-carboxylic acid]: the Ki in assay [1] is 1450 nM. Moreover, the IC50 in assay [2] turned out to be 13200 nM.

For `CC(O)c1ccc2c(c1)[C@]1(CC[C@@](Nc3cccc(Cl)c3)(C(=O)O)CC1)[C@H](C[C@@H](C)COc1ccnc3ccsc13)C2` (stereo partly drawn) [Example 721, (1r,2′R,4R)-4-(3-chloroanilino)-6′-(1-hydroxyethyl)-2′-{(2R)-2-methyl-3-[(thieno[3,2-b]pyridin-7-yl)oxy]propyl}-2′,3′-dihydrospiro[cyclohexane-1,1′-indene]-4-carboxylic acid], in assay [1], the Ki stood at 2.12 nM. In addition, the IC50 in assay [2] stood at 670 nM.
